# According to ChEMBL document CHEMBL1152104, “Synthesis of partially non-peptidic neurotensin mimetics” (Bioorg Med Chem Lett, 1994):
# pEC50, pKd: −log10 of the molar value.
# Experiments:
# [1] = species: Homo sapiens; assay: Concentration required to stimulate cGMP production in NIE-115 neuroblastoma cells at higher doses in 10-100 uM range; type: functional, cell-based
# [2] = target: T1, Neurotensin receptor type 1 (Rattus norvegicus, UniProt P20789); assay: Equilibrium dissociation constant at cloned rat Neurotensin receptor (NT) receptor expressed in CHO-K1 cells; 0.3-0.7 uM; type: cell-based
# T1 sequence (P20789 whole entry): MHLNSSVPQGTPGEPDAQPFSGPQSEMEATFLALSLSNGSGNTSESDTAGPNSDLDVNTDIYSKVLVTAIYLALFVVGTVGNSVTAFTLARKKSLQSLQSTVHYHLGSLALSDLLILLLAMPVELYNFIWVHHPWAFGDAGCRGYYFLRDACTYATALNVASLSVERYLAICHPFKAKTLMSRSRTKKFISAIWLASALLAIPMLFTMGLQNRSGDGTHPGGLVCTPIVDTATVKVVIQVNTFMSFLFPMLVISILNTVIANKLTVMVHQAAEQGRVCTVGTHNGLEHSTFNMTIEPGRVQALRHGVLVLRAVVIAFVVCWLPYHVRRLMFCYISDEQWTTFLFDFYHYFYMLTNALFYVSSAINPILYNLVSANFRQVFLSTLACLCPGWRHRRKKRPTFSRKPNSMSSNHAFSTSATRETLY
# [3] = test system: CHO-K1; assay: Effect on PI turnover in intact CHO-K1 cells; type: functional, cell-based; conditions: Cricetulus griseus
# [4] = target: T1, Neurotensin receptor type 1; assay: Equilibrium dissociation constant at cloned rat Neurotensin receptor (NT) receptor
pEC50 [1],pKd [2],pKd [4],Structure (SMILES),pEC50 [3]
4.72,6.52,–,CC[C@H](C)[C@H](NC(=O)[C@H](Cc1ccc(O)cc1)NC(=O)c1[nH]c2c(OCCCCCN=C(N)N)cccc2c1CCCCCCN=C(N)N)C(=O)N[C@@H](CC(C)C)C(=O)O.O=C(O)C(F)(F)F,–
–,6.52,–,CC[C@H](C)[C@H](NC(=O)[C@H](Cc1ccc(O)cc1)NC(=O)c1[nH]c2c(OCCCCCN)cccc2c1CCCCCCN)C(=O)N[C@@H](CC(C)C)C(=O)O,~5.89
–,6.52,–,CC[C@H](C)[C@H](NC(=O)[C@H](Cc1c[nH]c2ccccc12)NC(=O)c1[nH]c2c(OCCCCCN=C(N)N)cccc2c1CCCCCCN=C(N)N)C(=O)N[C@@H](CC(C)C)C(=O)O,–
–,–,~4.40,CC[C@H](C)[C@H](NC(=O)[C@H](Cc1ccc(O)cc1)NC(=O)c1[nH]c2ccc(OCCCCCN)cc2c1CCCCCCN)C(=O)N[C@@H](CC(C)C)C(=O)O,–
